Results published in PMC9938899, “Rice-memolin, a novel peptide derived from rice bran, improves cognitive function after oral administration in mice” (Scientific Reports, 2023).
Where no end group is shown, it is not given here.

How the values were obtained:
mice fed HFD = experiment: novel object recognition test (ORT) in mice fed a high-fat diet; format: in vivo; details: MLA 0.3 mg/kg i.p. with rice-memolin 1 mg/kg p.o. once a day for 3 days, n = 3–5 (Fig. 4)
Method: Male ddY mice (11 weeks old) were obtained from SLC (Shizuoka, Japan). They were kept in a temperature-controlled room (23 °C) on a daily 12-h light: 12-h dark cycle. After one week-acclimatization, these mice were fed MF pellets (Oriental Yeast, Tokyo, Japan) as control diet, HFD60 pellets (Oriental Yeast Co., Ltd, Japan) as high-fat diet, or HFD 60 pellets containing 0.04% rice bran protein digest (specially ordered from Oriental Yeast Co., Ltd, Japan) with free access to water for 7 days. The component of HFD60 was previously reported. Animal experiments were conducted in accordance with the Fundamental Guidelines for Proper Conduct of Animal Experiment and Related Activities in Academic Research Institutions under the jurisdiction of the Ministry of Education, Culture, Sports, Science and Technology of Japan, and were approved by the Committee on Animal Experimentation at Kyoto University, Japan. All experiments were approved by the Kyoto University Ethics Committee for Animal Research Use, permission code was R3-13. […]
Cognitive function was evaluated on Day 6 and 7 using two behavioral pharmacological tests: novel object recognition test (ORT) and object location test (OLT). […] Using the ORT, effect of donepezil, a drug currently used for the relief of cognitive deficits associated with mild to moderate Alzheimer’s diseases, was evaluated. […]

pepsin and pancreatin = pepsin and pancreatin digestion of VYTPG with LCMS analysis; format: in vitro ADME; details: simulated gastrointestinal digestion; each enzyme treatment time 1 h; LCMS analysis (Supplemental Fig. S1)
Method: Pepsin and pancreatin digests of VYTPG and LCMS analysis were performed in a similar manner to previous studies (Shobako et al.) with slight modifications to simulate peptide bioavailability. Each enzyme treatment time was 1 h.

| Compound | effect on the rice-memolin-induced improvement in the novel ORT (mice fed HFD) | stability to digestion by pepsin and pancreatin (pepsin and pancreatin) |
| --- | --- | --- |
| CCN1C[C@]2(COC(=O)c3ccccc3N3C(=O)C[C@H](C)C3=O)CC[C@H](OC)[C@@]34[C@@H]5C[C@H]6[C@H](OC)[C@@H]5[C@](O)(C[C@@H]6OC)[C@@](O)([C@@H](OC)[C@H]23)[C@@H]14 [MLA, methyllycaconitine] | inhibited the effects of rice-memolin |  |
| VYTPG [VYTPG, Val-Tyr-Thr-Pro-Gly] |  | existed even after digestion by pepsin and pancreatin |
